In US5665745A, “Heterocyclic compounds and their preparation and use” (Eli Lilly and Company, priority 1995, dated 1997):
Where two headings read alike, the source gives them in different places.

Legend:
[1] = molecular target: muscarinic acetylcholine receptors; experiment: inhibition of specific binding of ^3 H-Oxotremorine-M (^3 H-Oxo); parameters: species or system rat (male Wistar; settings: ^3 H-Oxotremorine 1.0 nM, rat cortex, 30 min. at 25° C.
Text: The pharmacological properties of the compounds of the invention can be illustrated by determining their capability to inhibit the specific binding of ^3 H-Oxotremorine-M (^3 H-Oxo). Birdsdall N. J. M., Hulme E. C., and Burgen A. S. V. (1980). "The Character of Muscarinic Receptors in Different Regions of the Rat Brain" Proc. Roy. Soc. London (Series B) 207,1.
^3 H-Oxo labels muscarinic receptor in the CNS (with a preference for agonist domains of the receptors). Three different sites are labeled by ^3 H-Oxo. […] Using the present experimental conditions only the high and medium affinity sites are determined.
The inhibitory effects of compounds on ^3 H-oxo binding reflects the affinity for muscarinic acetylcholine receptors.
(§1) All preparations are performed at 0°-4° C. unless otherwise indicated. Fresh cortex (0.1-1 g) from male Wistar rats (150-250 g) is homogenized for 5-10 seconds in 10 mL 20 nM Hepes pH: 7.4, with an Ultra-Turrax homogenizer. The homogenizer is rinsed with 10 mL of buffer and the combined suspension centrifuged for 15 min. at 40,000×g. The pellet is washed three times with buffer. In each step the pellet is homogenized as before in 2×10 mL of buffer and centrifuged for 10 min. at 40,000×g.
The final pellet is homogenized in 20 mM Hepes pH: 7.4 (100 mL per g of original tissue) and used for binding assay. Aliquots of 0.5 mL is added 25 μL of test solution and 25 μL of ^3 H-Oxotremorine (1.0 nM, final concentration) mixed and incubated for 30 min. at 25° C. Non-specific binding is determined in triplicate using arecoline ([…], final concentration) as the test substance. After incubation samples are added 5 mL of ice-cold buffer and poured directly onto Whatman GF/C glass fiber filters under suction and immediately washed 2 times with 5 mL of ice-cold buffer. The amount of radioactivity on the filters are determined by conventional liquid scintillation counting. Specific binding is total binding minus non specific binding.
Test substances are dissolved in 10 mL water (if necessary heated on a steam-bath for less than 5 min.) at a concentration of 2.2 mg/mL. […] The test value will be given as IC50 (the concentration (nM) of the test substance which inhibits the specific binding of ^3 H-oxo by 50%). IC50 =(applied test substance concentration) x(Cx /Co -Cx)nM where Co is specific binding in control assays and Cx is the specific binding in the test assay. (The calculations assume normal mass-action kinetics).

[2] = molecular target: T1, muscarinic receptors (M1 -site, pirenzepine sensitive site) (Rattus norvegicus, UniProt P08482); experiment: inhibition of ^3 HPRZ (pirenzepine, [N-methyl-^3 H]) binding to rat cerebral cortex membranes; parameters: species or system rat (male Wistar
T1 construct: from tissue; host or cells: cerebral cortex membranes of male Wistar rats
T1 sequence (P08482 1-460): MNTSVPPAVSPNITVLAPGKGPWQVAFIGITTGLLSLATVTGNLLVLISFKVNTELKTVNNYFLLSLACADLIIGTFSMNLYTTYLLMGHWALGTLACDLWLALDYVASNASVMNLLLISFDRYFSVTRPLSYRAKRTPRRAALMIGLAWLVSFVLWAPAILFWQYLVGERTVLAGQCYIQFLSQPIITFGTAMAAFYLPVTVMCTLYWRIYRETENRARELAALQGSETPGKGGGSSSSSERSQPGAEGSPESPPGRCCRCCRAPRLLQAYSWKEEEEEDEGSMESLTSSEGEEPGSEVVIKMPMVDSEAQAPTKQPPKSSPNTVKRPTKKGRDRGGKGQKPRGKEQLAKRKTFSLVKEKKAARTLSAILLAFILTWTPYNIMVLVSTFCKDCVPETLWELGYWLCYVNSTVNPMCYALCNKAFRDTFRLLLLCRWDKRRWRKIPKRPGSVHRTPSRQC
Experimental: Furthermore the pharmacological properties of the compounds of the invention can also be illustrated by determining their capability to inhibit ^3 HPRZ (pirenzepine, [N-methyl-^3 H]) binding to rat cerebral cortex membranes.
Pirenzepine binds selectively to subtype of muscarinic receptors. Historically the type is named the M1 -site, whereas pirenzepine sensitive site would be more appropriate.
as §1, with “cortex ([…])” for “cortex (0.1-1 g)”, “rats (150-200” for “rats (150-250”, “5-10 s” for “5-10 seconds”, “20 mM” for “20 nM”, “with 2×10” for “with 10”, “in 3×10” for “in 2×10”
The final pellet is homogenized in 20 mM Hepes pH: 7.4 (100 mL per g of original tissue) and used for binding assay. Aliquots of 0.5 mL is added 20 μl of test solution and 25 μL of ^3 HPRZ (1.0 nM, final conc.), mixed and incubated for 60 min. at 20° C. Non-specific binding is determined in triplicate using atropine (1 ,μg/mL, final conc.) as the test substance. After incubation samples are added 5 mL of ice-cold buffer and poured directly onto Whatman GF/C glass fiber filters under suction and immediately washed 2 times with 5 mL of ice-cold buffer. The amount of radioactivity on the filters are determined by conventional liquid scintillation counting. Specific binding is total binding minus non-specific binding.
Test substances are dissolved in 10 mL water, at a concentration of 0.22 mg/mL.
The test value will be given as IC50 (the concentration (nM) of the test substance which inhibits the specific binding of ^3 HPRZ by 50%). IC50 =(applied test substance concentration) x(Cx /Co -Cx)nM where Co is specific binding in control assays and Cx is the specific binding in the test assay. (The calculations assume normal mass-action kinetics).

[3] = ^3 HPRZ 1.0 nM, rat cortex, 60 min. at 20° C., read-out: ^3 HPRZ IC50 (head from b208 on: Pir IC-50)

Compound: CSc1ccc(COc2nsnc2O[C@@H]2CN3CCC[C@H]2C3)cc1 (relative stereo) [Compound 172, (±)-endo-3-(4-Methylthiobenzyloxy)-4-(1-azabicyclo[3.2.1]octyl-6-oxy)-1,2,5-thiadiazole]
- IC50 [1]: 0.0052 µM
- IC50 [2, 3]: 0.01 µM

Compound: CCCCCCOc1nsnc1OC1CN2CCC1CC2 (racemic) [Compound 10, (±)-3-Hexyloxy-4-(1-azabicyclo[2.2,2]octyl-3-oxy)-1,2,5-thiadiazole]
- IC50 [1]: 0.0061 µM
- IC50 [2]: 0.022 µM

Compound: Clc1nsnc1O[C@H]1CN2CCC[C@@H]1C2 (relative stereo) [Compound 48, (±)-endo-3-Chloro-4-(1-azabicyclo [3.2.1]octyl-6-oxy)-1,2,5-thiadiazole]
- IC50 [1]: 0.014 µM
- IC50 [2]: 0.027 µM

Compound: CCCCSc1nsnc1O[C@@H]1CN2CCC[C@H]1C2 [Compound 137, (5S, 6S)-endo-3-Butylthio-4-(1-azabicyclo[3.2.1]octyl-6-oxy)-1,2,5-thiadiazole]
- IC50 [1]: 0.00739 µM
- IC50 [2, 3]: 0.0021 µM

Compound: Fc1ccc(OCCSc2nsnc2OC2CC3CCC2NC3)cc1 (mixture of isomers) [Compound 164, (±)-exo-3-(2-[Fluorophenoxy]ethylthio)-4-(2-azabicyclo[2.2.2]octyl-6-oxy)-1,2,5-thiadiazole]
- IC50 [1]: 0.00528 µM
- IC50 [2, 3]: 0.0166 µM

Compound: FC(F)(F)Oc1ccc(COc2nsnc2O[C@@H]2CN3CCC[C@H]2C3)cc1 (relative stereo) [Compound 196, (±)-endo-3-[4-(Trifluoromethoxy)benzyloxy]-4-(1-azabicyclo[3.2.1]octyl-6-oxy)-1,2,5-thiadiazole]
- IC50 [1]: 0.0052 µM
- IC50 [2, 3]: 0.0088 µM

Compound: CCCCCCOc1nsnc1OC1CC2CCC1NC2 (mixture of isomers) [Compound 161, (±)-exo-3-(Hexyloxy)-4-(2-azabicyclo[2.2.2]octyl-6-oxy)-1,2,5-thiadiazole]
- IC50 [1]: 0.0068 µM
- IC50 [2, 3]: 0.0053 µM

Compound: CCCCOc1nsnc1OC1CCN(C)C1 (racemic) [Compound 28, (±)-3-Butyloxy-4-(1-methyl-3-pyrrolidinyloxy)-1,2,5-thiadiazole]
- IC50 [1]: 0.037 µM
- IC50 [2, 3]: 0.025 µM

Compound: CC(C)(C)c1ccc(COc2nsnc2O[C@@H]2CN3CCC[C@H]2C3)cc1 (relative stereo) [Compound 198, (±)-endo-3-(4-tert-Butylbenzyloxy)-4-(1-azabicyclo[3.2.1]octyl-6-oxy)-1,2,5-thiadiazole]
- IC50 [1]: 0.031 µM
- IC50 [2, 3]: 0.12 µM

Compound: C(CC1CC1)Oc1nsnc1OC1CN2CCC1CC2 (racemic) [Compound 114, (±)-3-(2-Cyclopropylethoxy)-4-(1-azabicyclo[2.2.2]octyl-3-oxy)-1,2,5-thiadiazole]
- IC50 [1]: 0.0093 µM
- IC50 [2]: 0.043 µM

Compound: FC(F)(F)c1ccc(CCCSc2nsnc2OC2CN3CCC2CC3)cc1 (racemic) [Compound 74, (±)3-{3-[4-(Trifluoromethyl)phenyl]propylthio}-4-[-3-(1-azabicyclo[2.2.2]octyloxy)]-1,2,5-thiadiazole]
- IC50 [1]: 0.024 µM
- IC50 [2]: 0.04 µM

Compound: FCCCCOc1nsnc1O[C@@H]1CN2CCC[C@H]1C2 (relative stereo) [Compound 197, (±)-endo-3-(4-Fluorobutoxy)-4-(1-azabicyclo[3.2.1]octyl-6-oxy)-1,2,5-thiadiazole]
- IC50 [1]: 0.0023 µM
- IC50 [2, 3]: 0.0069 µM

Compound: FCCCOc1nsnc1O[C@@H]1CN2CCC[C@H]1C2 (relative stereo) [Compound 205, (±)-endo-3-(3-Fluoropropoxy)-4-(1-azabicyclo[3.2.1]octyl-6-oxy)-1,2,5-thiadiazole]
- IC50 [1]: 0.0025 µM
- IC50 [2, 3]: 0.003 µM

Compound: c1nsnc1OC1CN2CCC1CC2 (racemic) [Compound 100, (±)-3-(1-azabicyclo[2.2.2]octyl-3-oxy)-1,2,5-thiadiazole]
- IC50 [1]: 0.873 µM
- IC50 [2, 3]: 0.846 µM

Compound: CCCCSc1nsnc1OC1CNC1 [Compound 51, 3-Butylthio-4-(3-azetidinyloxy)-1,2,5-thiadiazole]
- IC50 [1]: 0.025 µM
- IC50 [2, 3]: 0.112 µM

Compound: C1=CC(Oc2nsnc2OC2CN3CCCC2C3)CCC1 (mixture of isomers) [Compound 174, (±)-endo-3-(2-Cyclohexenyloxy)-4-(1-azabicyclo[3.2.1]octyl-6-oxy)-1,2,5-thiadiazole]
- IC50 [1]: 0.0021 µM
- IC50 [2, 3]: 0.012 µM

Compound: C(#Cc1ccccc1)COc1nsnc1OC1CN2CCC1CC2 (racemic) [Compound 107, (±)-3-(3-phenylpropynyloxy)-4-(1-azabicyclo[2.2.2]octyl-3-oxy)-1,2,5-thiadiazole]
- IC50 [1]: 0.0096 µM
- IC50 [2]: 0.0224 µM

Compound: CCCCCCSc1nsnc1OC1CN2CCC1CC2 (racemic) [Compound 17, (±)-3-Hexylthio-4-(1-azabicyclo[2.2.2]octyl-3-oxy)-1,2,5-thiadiazole]
- IC50 [1]: 0.0052 µM
- IC50 [2]: 0.0088 µM

Compound: CCOc1nsnc1OC1CN2CCC1CC2 (racemic) [Compound 6, (±)-3-Ethoxy-4-(1-azabicyclo[2.2.2]octyl-3-oxy)-1,2,5-thiadiazole]
- IC50 [1]: 0.017 µM
- IC50 [2]: 0.032 µM

Compound: CSCCc1nsnc1OC1CN2CCC1CC2 (racemic) [Compound 99, (±)-3-(2-Methylthioethyl)-4-(1-azabicyclo[2.2.2]octyl-3-oxy)-1,2,5-thiadiazole]
- IC50 [1]: 0.041 µM
- IC50 [2]: 0.07 µM

Compound: C1C[C@H]2CN(C1)C[C@H]2Oc1nsnc1OCC1CC1 (relative stereo) [Compound 182, (±)-endo-3-(cyclopropylmethoxy)-4-(1-azabicyclo[3.2.1]octyl-6-oxy)-1,2,5-thiadiazole]
- IC50 [1]: 0.0006 µM
- IC50 [2, 3]: 0.0035 µM

Compound: CC(C)(CCOc1nsnc1O[C@@H]1CN2CCC[C@H]1C2)c1ccccc1 (relative stereo) [Compound 204, (±)-endo-3-(3-Methyl-3-phenylbutoxy)-4-(1-azabicyclo[3.2.1]octyl-6-oxy)-1,2,5-thiadiazole]
- IC50 [1]: 0.059 µM
- IC50 [2, 3]: 0.153 µM

Compound: C(=Cc1ccccc1)CSc1nsnc1OC1CN2CCC1CC2 (racemic) [Compound 149, (±)-3-(3-Phenyl-2-propenylthio)-4-(1-azabicyclo[2.2.2]octyl-3-oxy)-1,2,5-thiadiazole]
- IC50 [1]: 0.014 µM
- IC50 [2]: 0.03 µM

Compound: CCCCOc1nsnc1O[C@@H]1CN2CC[C@H]1C2 (relative stereo) [Compound 25, (±)-endo-3-Butyloxy-4-(1-azabicyclo[2.2.1]heptyl-3-oxy)-1,2,5-thiadiazol]
- IC50 [1]: 0.0018 µM
- IC50 [2]: 0.0021 µM
